Laboratory results published in patent US20060025477A1, “Analogs of isovaleramide, a pharmaceutical composition including the same, and a method of treating central nervous system conditions or diseases” (priority 2004, published 2006).
Where two headings read alike, the source gives them in different places.

Key:
[1] = tested on: Frings audiogenic seizure-susceptible mouse; assay: Frings audiogenic seizure assay (protection against sound-induced tonic hindlimb extension); type: in vivo; conditions: Mus musculus, po
Description: The anticonvulsant activity of compound S ((S)-(+)-2,2-dimethylcyclopropane-carboxamide) was tested using the Frings audiogenic seizure-susceptible mouse. […] Compound S, which is a solution at 300 mg/kg and a suspension at 600 mg/kg, was administered to the mice at the doses indicated in Tables 1-3. Compound S was obtained from Sigma-Aldrich Chemical Co. (Aldrich catalog number: 43,463-9).
At the time of testing, individual mice were placed into a round Plexiglas chamber and exposed to a sound stimulus of 110 decibels, 11 kHz, for 20 seconds. Mice not displaying tonic hindlimb extensions upon exposure to the sound stimulus were considered protected. In addition, the seizure score for each mouse was recorded as: (1) running for less than 10 seconds; (2) running for greater than 10 seconds; (3) clonic activity of limbs and/or vibrissae; (4) forelimb extension/hindlimb flexion; and (5) hindlimb extension. The average seizure score was calculated for each group of mice used in the dose-response study.
The anticonvulsant activity of compounds I, W, X, and AA was tested using the Frings audiogenic seizure-susceptible mouse model as described in Example 23. […] The therapeutic index relates to separation between therapeutic efficacy and CNS toxicity as measured by motor impairment in the rotarod performance test.

Frings mice = assay: Rotarod test of motor impairment (toxicity) in the Frings study; type: in vivo; conditions: for Therapeutic Index: Frings, mouse, in vivo, po
Description: At each dose, the mice were also tested on a rotarod for testing of motor impairment (toxicity). Testing for motor impairment on the rotarod involved placing a mouse for a three-minute trial period on a one-inch diameter rod rotating at six revolutions per minute. If the mouse fell off of the rotating rod three times within the three-minute time period, the dose was considered a toxic response.
The therapeutic index relates to separation between therapeutic efficacy and CNS toxicity as measured by motor impairment in the rotarod performance test.

male Swiss-Webster mice [2] = assay: Maximal electroshock (MES)-induced tonic extension seizure test; type: in vivo, mouse; conditions: for # P/# T (protected/tested): 300 mg/kg p.o.
Description: In the MES test, a substance is administered orally (p.o.) and is tested for efficacy against maximal electroshock (MES)-induced tonic extension seizures. Adult male Swiss-Webster mice (each 20-25 g of body weight) were used. The mice were housed in Association for the Assessment and Accreditation of Laboratory Animal Care-approved facilities under a constant 12-hour light/dark cycle with a constant temperature of 21° C.-23° C. and a relative humidity of 30% to 50%. All animals were permitted free access to standard laboratory chow (Prolab RMH 3000; PMI Nutrition International, LLC, Brentwood, Mo.) and water, except when removed from their home cages for testing. All mice were handled in a manner consistent with the recommendations in the National Research Council Publication Guide for the Care and Use of Laboratory Animals.
(§1) Test compounds (Compound S, Compound W, the S-enantiomer of Compound AA, the R-enantiomer of Compound AA, Compound HH, Compound JJ, and Compound MM) were dissolved in saline containing 0.5% methylcellulose. To determine time to peak effect, 300 mg/kg of each of the test compounds was suspended in 0.5% methylcellulose in saline and administered orally to a group of 20 mice. For comparative purposes, isovaleramide was also tested. At various times (0.25, 0.5, 1, 2, and 4 hours) after p.o. administration, individual mice were placed on the rotarod and tested for their ability to maintain balance on a rotating (6 rpm) 2.5-cm diameter knurled rod for 60 seconds. Mice that fell three times in this 60-second trial were considered impaired.
Following rotarod testing, the mice were tested in the maximal electroshock (MES)-induced tonic extension seizures test. For this test, a drop of electrolyte solution (0.5% butacaine sulfate in 0.9% saline) was placed on the eyes of each mouse prior to placement of corneal electrodes. The mice were restrained by gripping the loose skin on their dorsal surface and saline-coated corneal electrodes were held lightly against the two corneas. Each mouse received an electrical stimulation (50 mAmp, 50 Hz current, 0.2 sec) delivered through a silver-coated corneal electrode using an electroshock machine as originally described by Woodbury and Davenport (Arch Int. Pharmacodyn. Ther., 92:97-104, 1952). […] A tonic seizure was defined as a hindlimb extension in excess of 90 degrees from the plane of the body. Results were treated in a quantal manner. […] ED50's (the effective dose at which 50% of the mice were protected) were determined for Compounds W and HH by administering various doses (30, 100, 300 mg/kg) at the previously determined time to peak effect, as shown in Table 11.

male Swiss-Webster mice [3] = assay: Rotarod impairment test before MES testing; type: in vivo, mouse; conditions: 300 mg/kg p.o.
Description: as §1

[4] = humans, cited from earlier work
[5] = Table 5, read-out: ED50 Oral Administration

## CC(C)CC(=O)NCC(N)=O [Compound I]
[1]; [5]
  ED50: < 1000 mg/kg

## CC1CCC(CC(N)=O)CC1 (stereo not shown) [Compound X, 2-(4-methylcyclohexyl)acetamide]
Frings mice
  Therapeutic Index: >6-fold
[1]; [5]
  ED50: 86.4 mg/kg

## CC(C)[C@@H](C)C(N)=O [AA (S- enantiomer)]
Male Swiss-Webster mice [2]; 0.25 hours
  # P/# T (protected/tested): 3/4
Male Swiss-Webster mice [2]; 0.5 hours
  # P/# T (protected/tested): 0/4
Male Swiss-Webster mice [2]; 1 hour
  # P/# T (protected/tested): 1/4
Male Swiss-Webster mice [2]; 2 hours
  # P/# T (protected/tested): 1/4
Male Swiss-Webster mice [2]; 4 hours
  # P/# T (protected/tested): 0/4
Frings mice
  Therapeutic Index: >4-fold
Male Swiss-Webster mice [3]; 0.25 hours
  # I/# T (impaired/tested): 0/4
Male Swiss-Webster mice [3]; 0.5 hours
  # I/# T (impaired/tested): 1/4
Male Swiss-Webster mice [3]; 1 hour
  # I/# T (impaired/tested): 0/4
Male Swiss-Webster mice [3]; 2 hours
  # I/# T (impaired/tested): 0/4
Male Swiss-Webster mice [3]; 4 hours
  # I/# T (impaired/tested): 0/4
[1]; [5]
  ED50: 84.1 mg/kg

## CC(C)C(C)C(N)=O (racemic) [AA (cis and trans mixture)]
[1]; [5]
  ED50: 140 mg/kg

## C[C@H]1CC[C@H](C(N)=O)CC1 [Compound W, trans-4-methylcyclohexanecarboxamide]
Male Swiss-Webster mice [2]; p.o., at time to peak effect, MES
  ED50 Oral Administration: Inactive at 300 mg/kg
Frings mice
  Therapeutic Index: >4-fold
[1]; [5]
  ED50: 164 mg/kg

## CC(C)C(C)(C)C(N)=O [Compound JJ]
Male Swiss-Webster mice [2]; 0.25 hours
  # P/# T (protected/tested): 1/4
Male Swiss-Webster mice [2]; 0.5 hours
  # P/# T (protected/tested): 0/4
Male Swiss-Webster mice [2]; 1 hour
  # P/# T (protected/tested): 0/4
Male Swiss-Webster mice [2]; 2 hours
  # P/# T (protected/tested): 0/4
Male Swiss-Webster mice [2]; 4 hours
  # P/# T (protected/tested): 0/4
Male Swiss-Webster mice [3]; 0.25 hours
  # I/# T (impaired/tested): 1/4
Male Swiss-Webster mice [3]; 0.5 hours
  # I/# T (impaired/tested): 2/4
Male Swiss-Webster mice [3]; 1 hour
  # I/# T (impaired/tested): 1/4
Male Swiss-Webster mice [3]; 2 hours
  # I/# T (impaired/tested): 0/4
Male Swiss-Webster mice [3]; 4 hours
  # I/# T (impaired/tested): 0/4

## CC(C)CC(N)=O [Isovaleramide, isovaleramide]
Male Swiss-Webster mice [2]; Mus musculus, po, at time to peak effect, MES, read-out: ED50 Oral Administration
  ED50: 913 mg/kg
Frings mice; as measured by rotarod impairment, p.o.
  separation between efficacy and CNS toxicity: 5 fold
[4]; oral, doses ranging from 100 mg to 1600 mg
  half-life: about 2.5 hours
[4]; orally administered
  absorption: readily absorbed from the gastrointestinal tract
[1]; Table 4, read-out: ED50
  ED50: 206 mg/kg

## CC(C)[C@H](C)C(N)=O [AA (R- enantiomer)]
Male Swiss-Webster mice [2]; 0.25 hours
  # P/# T (protected/tested): 0/4
Male Swiss-Webster mice [2]; 0.5 hours
  # P/# T (protected/tested): 0/4
Male Swiss-Webster mice [2]; 1 hour
  # P/# T (protected/tested): 0/4
Male Swiss-Webster mice [2]; 2 hours
  # P/# T (protected/tested): 0/4
Male Swiss-Webster mice [2]; 4 hours
  # P/# T (protected/tested): 0/4
Frings mice
  Therapeutic Index: >4-fold
Male Swiss-Webster mice [3]; 0.25 hours
  # I/# T (impaired/tested): 3/4
Male Swiss-Webster mice [3]; 0.5 hours
  # I/# T (impaired/tested): 3/4
Male Swiss-Webster mice [3]; 1 hour
  # I/# T (impaired/tested): 0/4
Male Swiss-Webster mice [3]; 2 hours
  # I/# T (impaired/tested): 3/4
[1]; [5]
  ED50: 84.2 mg/kg

## C[C@H](C(N)=O)C(C)(C)C [Compound MM]
Male Swiss-Webster mice [2]; 0.25 hours
  # P/# T (protected/tested): 0/4
Male Swiss-Webster mice [2]; 0.5 hours
  # P/# T (protected/tested): 1/4
Male Swiss-Webster mice [2]; 1 hour
  # P/# T (protected/tested): 2/4
Male Swiss-Webster mice [2]; 2 hours
  # P/# T (protected/tested): 3/4
Male Swiss-Webster mice [2]; 4 hours
  # P/# T (protected/tested): 3/4
Male Swiss-Webster mice [3]; 0.25 hours
  # I/# T (impaired/tested): 2/4
Male Swiss-Webster mice [3]; 0.5 hours
  # I/# T (impaired/tested): 3/4
Male Swiss-Webster mice [3]; 1 hour
  # I/# T (impaired/tested): 4/4
Male Swiss-Webster mice [3]; 2 hours
  # I/# T (impaired/tested): 3/4
Male Swiss-Webster mice [3]; 4 hours
  # I/# T (impaired/tested): 3/4
